Source: patent US10738056B2 (Aduro BioTech, Inc., priority 2017, dated 2020)

target: Human cGAS amino acids 155-522 (Homo sapiens (Human), UniProt Q8N884); assay: cGAS biochemical activity assay (ATP remaining, Kinase-Glo Max luminescence); conditions: human cGAS 155-522, ATP remaining (Kinase-Glo Max); read-out: cGAS IC50
Sequence (Q8N884 157-522): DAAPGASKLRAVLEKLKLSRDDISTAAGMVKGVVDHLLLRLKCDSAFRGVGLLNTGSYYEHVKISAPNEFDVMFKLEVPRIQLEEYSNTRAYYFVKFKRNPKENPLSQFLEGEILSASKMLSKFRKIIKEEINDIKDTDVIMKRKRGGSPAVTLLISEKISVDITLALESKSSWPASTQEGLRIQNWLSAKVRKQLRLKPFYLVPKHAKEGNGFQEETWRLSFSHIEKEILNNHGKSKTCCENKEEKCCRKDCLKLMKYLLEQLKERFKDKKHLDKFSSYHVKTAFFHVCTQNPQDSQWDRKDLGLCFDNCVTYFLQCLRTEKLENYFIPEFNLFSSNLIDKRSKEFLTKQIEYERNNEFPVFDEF

`Cc1[nH]c2c(-c3ccccc3)c(C(F)(F)F)nn2c(=O)c1CC(=O)N1CCOCC1` [Compound B1002, 5-methyl-6-(2-morpholino-2-oxoethyl)-3-phenyl-2-(trifluoromethyl)pyrazolo[1,5-a]pyrimidin-7(4H)-one] and `Cc1[nH]c2c(-c3ccccc3)c(C(F)(F)F)nn2c(=O)c1CC(=O)N1CCN(c2ccccc2)CC1` [Compound B1007, 5-methyl-6-(2-oxo-2-(4-phenylpiperazin-1-yl)ethyl)-3-phenyl-2-(trifluoromethyl)pyrazolo[1,5-a]pyrimidin-7(4H)-one] cannot be ordered by IC50: > 250 µM for the first, > 250 µM for the second.

`COc1cccc2oc(-c3c(C)[nH]c4c(-c5cccnc5)c(C(F)(F)F)nn4c3=O)nc12` [Compound C1129, 6-(4-methoxybenzo[d]oxazol-2-yl)-5-methyl-3-(pyridin-3-yl)-2-(trifluoromethyl)pyrazolo[1,5-a]pyrimidin-7(4H)-one] and `CNC(=O)COCc1[nH]c2c(-c3ccccc3)c(C(F)(F)F)nn2c(=O)c1-c1nc2c(OC)cccc2o1` [Compound C1199, 2-((6-(4-methoxybenzo[d]oxazol-2-yl)-7-oxo-3-phenyl-2-(trifluoromethyl)-4,7-dihydropyrazolo[1,5-a]pyrimidin-5-yl)methoxy)-N-methylacetamide] fall in the same range of IC50: 20 to 250 µM for the first, 20 to 250 µM for the second.

First: Cc1[nH]c2c(-c3ccccc3)c(C(F)(F)F)nn2c(=O)c1-c1nnc(-c2ccccc2)o1 [Compound D1011, 5-methyl-3-phenyl-6-(5-phenyl-1,3,4-oxadiazol-2-yl)-2-(trifluoromethyl)pyrazolo[1,5-a]pyrimidin-7(4H)-one]
Second: Cc1[nH]c2c(-c3ccccc3)c(C(F)(F)F)nn2c(=O)c1-c1nnc(-c2ccccc2N)o1 [Compound D1082, 6-(5-(2-aminophenyl)-1,3,4-oxadiazol-2-yl)-5-methyl-3-phenyl-2-(trifluoromethyl)pyrazolo[1,5-a]pyrimidin-7(4H)-one]
The IC50 of the first is higher: > 250 µM for the first, 20 to 250 µM for the second.

Compared with `Cc1[nH]c2c(-c3ccccc3)c(C(F)(F)F)nn2c(=O)c1C(=O)Nc1nc[nH]n1` [Compound A1040, 5-methyl-7-oxo-3-phenyl-N-(1H-1,2,4-triazol-3-yl)-2-(trifluoromethyl)-4,7-dihydropyrazolo[1,5-a]pyrimidine-6-carboxamide], `Cc1[nH]c2c(-c3ccccc3)c(C(F)(F)F)nn2c(=O)c1C(=O)Nc1cnccn1` [Compound A1024, 5-methyl-7-oxo-3-phenyl-N-(pyrazin-2-yl)-2-(trifluoromethyl)-4,7-dihydropyrazolo[1,5-a]pyrimidine-6-carboxamide] is lower in IC50: 20 to 250 µM for the first, < 20 µM for the second.

Compared with `Cc1[nH]c2c(C3CCCC3)c(C(F)(F)F)nn2c(=O)c1-c1ccccc1` [Compound C1266, 3-cyclopentyl-5-methyl-6-phenyl-2-(trifluoromethyl)pyrazolo[1,5-a]pyrimidin-7(4H)-one], `Cc1[nH]c2c(-c3ccccc3)c(C(F)(F)F)nn2c(=O)c1C(=O)N[C@@H]1CCCC[C@H]1N` [Compound A1014, N-((1R,2R)-2-aminocyclohexyl)-5-methyl-7-oxo-3-phenyl-2-(trifluoromethyl)-4,7-dihydropyrazolo[1,5-a]pyrimidine-6-carboxamide] is lower in IC50: > 250 µM for the first, 20 to 250 µM for the second.

`COc1cccc2oc(-c3c(C4CCC(C(=O)O)CC4)[nH]c4c(-c5ccccc5)c(C(F)(F)F)nn4c3=O)nc12` (single isomer, unassigned) [Compound C1237, 4-(6-(4-methoxybenzo[d]oxazol-2-yl)-7-oxo-3-phenyl-2-(trifluoromethyl)-4,7-dihydropyrazolo[1,5-a]pyrimidin-5-yl)cyclohexane-1-carboxylic acid] and `COc1cccc2c1nc(-c1c(C)[nH]c3c(-c4ccccc4)c(C(F)(F)F)nn3c1=O)n2CC(=O)O` [Compound C1221, 2-(4-methoxy-2-(5-methyl-7-oxo-3-phenyl-2-(trifluoromethyl)-4,7-dihydropyrazolo[1,5-a]pyrimidin-6-yl)-1H-benzo[d]imidazol-1-yl)acetic acid] fall in the same range of IC50: 20 to 250 µM for the first, 20 to 250 µM for the second.

`COC1CCCCC1NC(=O)c1c(C)[nH]c2c(-c3ccccc3)c(C(F)(F)F)nn2c1=O` (single isomer, unassigned) [Compound A1085, N-(2-methoxycyclohexyl)-5-methyl-7-oxo-3-phenyl-2-(trifluoromethyl)-4,7-dihydropyrazolo[1,5-a]pyrimidine-6-carboxamide] and `Cc1[nH]c2c(-c3ccccc3)c(C(F)(F)F)nn2c(=O)c1C(=O)NC1CCN(C)CC1` [Compound A1026, 5-methyl-N-(1-methylpiperidin-4-yl)-7-oxo-3-phenyl-2-(trifluoromethyl)-4,7-dihydropyrazolo[1,5-a]pyrimidine-6-carboxamide] fall in the same range of IC50: 20 to 250 µM for the first, 20 to 250 µM for the second.

First: COCCOc1nn2c(=O)c(-c3nc4c(OC)cccc4o3)c(C)[nH]c2c1-c1ccccc1 [Compound C1083, 6-(4-methoxybenzo[d]oxazol-2-yl)-2-(2-methoxyethoxy)-5-methyl-3-phenylpyrazolo[1,5-a]pyrimidin-7(4H)-one]
Second: COc1ccnc(-c2nnc(-c3c(C)[nH]c4c(-c5ccccc5)c(C(F)(F)F)nn4c3=O)o2)n1 [Compound D1076, 6-(5-(4-methoxypyrimidin-2-yl)-1,3,4-oxadiazol-2-yl)-5-methyl-3-phenyl-2-(trifluoromethyl)pyrazolo[1,5-a]pyrimidin-7(4H)-one]
The IC50 of the first is higher: > 250 µM for the first, 20 to 250 µM for the second.

`COc1cccc(NC(=O)c2c(C)[nH]c3c(-c4ccccc4)c(C(F)(F)F)nn3c2=O)c1Br` [Compound A1131, N-(2-bromo-3-methoxyphenyl)-5-methyl-7-oxo-3-phenyl-2-(trifluoromethyl)-4,7-dihydropyrazolo[1,5-a]pyrimidine-6-carboxamide] and `Cc1[nH]c2c(-c3ccccc3)c(C(F)(F)F)nn2c(=O)c1C(=O)Nc1ccccc1N(C)C` [Compound A1053, N-(2-(dimethylamino)phenyl)-5-methyl-7-oxo-3-phenyl-2-(trifluoromethyl)-4,7-dihydropyrazolo[1,5-a]pyrimidine-6-carboxamide] fall in the same range of IC50: 20 to 250 µM for the first, 20 to 250 µM for the second.

First: Cc1[nH]c2c(-c3ccccc3)c(C(F)(F)F)nn2c(=O)c1-c1nnc(C(N)=O)o1 [Compound D1066, 5-(5-methyl-7-oxo-3-phenyl-2-(trifluoromethyl)-4,7-dihydropyrazolo[1,5-a]pyrimidin-6-yl)-1,3,4-oxadiazole-2-carboxamide]
Second: Cc1[nH]c2c(-c3ccccc3)c(C(F)(F)F)nn2c(=O)c1-c1nnc(C2CCOC2)o1 (stereo not shown) [Compound D1013, 5-methyl-3-phenyl-6-(5-(tetrahydrofuran-3-yl)-1,3,4-oxadiazol-2-yl)-2-(trifluoromethyl)pyrazolo[1,5-a]pyrimidin-7(4H)-one]
The IC50 of the first is lower: < 20 µM for the first, 20 to 250 µM for the second.

`Cc1[nH]c2c(-c3ccccc3)c(C(F)(F)F)nn2c(=O)c1C(=O)Nc1ccccc1OC1CCCC1` [Compound A1044, N-(2-(cyclopentyloxy)phenyl)-5-methyl-7-oxo-3-phenyl-2-(trifluoromethyl)-4,7-dihydropyrazolo[1,5-a]pyrimidine-6-carboxamide] and `Cc1[nH]c2c(-c3ccccc3)c(C(F)(F)F)nn2c(=O)c1C(=O)Nc1ccc(C#N)cc1` [Compound A1015, N-(4-cyanophenyl)-5-methyl-7-oxo-3-phenyl-2-(trifluoromethyl)-4,7-dihydropyrazolo[1,5-a]pyrimidine-6-carboxamide] fall in the same range of IC50: 20 to 250 µM for the first, 20 to 250 µM for the second.

First: Cc1cccc(-c2c(C)[nH]c3c(-c4ccccc4)c(C(F)(F)F)nn3c2=O)c1 [Compound C1002, 5-methyl-3-phenyl-6-(m-tolyl)-2-(trifluoromethyl)pyrazolo[1,5-a]pyrimidin-7(4H)-one]
Second: COc1cccc(N(C)C(=O)c2c(C)[nH]c3c(-c4ccccc4)c(C(F)(F)F)nn3c2=O)c1 [Compound A1114, N-(3-methoxyphenyl)-N,5-dimethyl-7-oxo-3-phenyl-2-(trifluoromethyl)-4,7-dihydropyrazolo[1,5-a]pyrimidine-6-carboxamide]
The IC50 of the first is lower: 20 to 250 µM for the first, > 250 µM for the second.

First: Cc1[nH]c2c(-c3ccccc3)c(C(F)(F)F)nn2c(=O)c1C(=O)Nc1cccc(NS(C)(=O)=O)c1 [Compound A1045, 5-methyl-N-(3-(methylsulfonamido)phenyl)-7-oxo-3-phenyl-2-(trifluoromethyl)-4,7-dihydropyrazolo[1,5-a]pyrimidine-6-carboxamide]
Second: Cc1[nH]c2c(-c3ccccc3)c(C(F)(F)F)nn2c(=O)c1N1Cc2ccccc2C1=O [Compound C1214, 5-methyl-6-(1-oxoisoindolin-2-yl)-3-phenyl-2-(trifluoromethyl)pyrazolo[1,5-a]pyrimidin-7(4H)-one]
The IC50 of the first is lower: < 20 µM for the first, 20 to 250 µM for the second. The first is the more potent here.

First: Cc1[nH]c2c(-c3ccccc3)c(C(F)(F)F)nn2c(=O)c1-c1nnc(N2CCCCC2CCNS(C)(=O)=O)o1 (stereo not shown) [Compound D1073, N-(2-(1-(5-(5-methyl-7-oxo-3-phenyl-2-(trifluoromethyl)-4,7-dihydropyrazolo[1,5-a]pyrimidin-6-yl)-1,3,4-oxadiazol-2-yl)piperidin-2-yl)ethyl)methanesulfonamide]
Second: Cc1[nH]c2c(-c3ccccc3)c(C(F)(F)F)nn2c(=O)c1-c1nnc(N2CCS(=O)(=O)CC2)o1 [Compound D1068, 6-(5-(1,1-dioxidothiomorpholino)-1,3,4-oxadiazol-2-yl)-5-methyl-3-phenyl-2-(trifluoromethyl)pyrazolo[1,5-a]pyrimidin-7(4H)-one]
The IC50 of the first is lower: < 20 µM for the first, 20 to 250 µM for the second.

First: Cc1[nH]c2c(-c3ccccc3)c(C(F)(F)F)nn2c(=O)c1-c1nnc(C2CCN(C(=O)OC(C)(C)C)CC2)o1 [Compound D1044, tert-butyl 4-(5-(5-methyl-7-oxo-3-phenyl-2-(trifluoromethyl)-4,7-dihydropyrazolo[1,5-a]pyrimidin-6-yl)-1,3,4-oxadiazol-2-yl)piperidine-1-carboxylate]
Second: Cc1[nH]c2c(C3CCCC3)c(C(F)(F)F)nn2c(=O)c1-c1nnc(C2CCCCC2)o1 [Compound D1017, 6-(5-cyclohexyl-1,3,4-oxadiazol-2-yl)-3-cyclopentyl-5-methyl-2-(trifluoromethyl)pyrazolo[1,5-a]pyrimidin-7(4H)-one]
The IC50 of the first is lower: 20 to 250 µM for the first, > 250 µM for the second.

For `COc1ccnc(NC(=O)c2c(C)[nH]c3c(-c4ccccc4)c(C)nn3c2=O)c1` [Compound A1105, N-(4-methoxypyridin-2-yl)-2,5-dimethyl-7-oxo-3-phenyl-4,7-dihydropyrazolo[1,5-a]pyrimidine-6-carboxamide], the IC50 was < 20 µM.
